The results in this text go back to US20170260183A1, “BICYCLIC COMPOUNDS AS PEST CONTROL AGENTS” (BAYER CROPSCIENCE AKTIENGESELLSCHAFT, priority 2014, published 2017).

Like-named read-outs stand apart in the source and are kept apart here.

Series [1] is described as follows: logP determination by HPLC on reversed-phase columns (OECD Guideline 117). The following applies: reversed-phase (C18) HPLC column. The class given is physicochemical. On the procedure: The logP values were determined in accordance with OECD Guideline 117 (EC Directive 92/69/EEC) by HPLC (high-performance liquid chromatography) using reversed-phase (RP) columns (C18), by the following methods: [a] The LC-MS determination in the acidic range is carried out at pH 2.7 with 0.1% aqueous formic acid and acetonitrile (contains 0.1% formic acid) as eluents; linear gradient from 10% acetonitrile to 95% acetonitrile. [b] LC-MS determination in the neutral range is effected at pH 7.8 with 0.001 molar aqueous ammonium hydrogencarbonate solution and acetonitrile as eluents; linear gradient from 10% acetonitrile to 95% acetonitrile. Calibration is effected using unbranched alkan-2-ones (having 3 to 16 carbon atoms) with known logP values (logP values determined on the basis of the retention times by linear interpolation between two successive alkanone s).

The test system of a further series is Aphis gossypii. The series is described as follows: Aphis gossypii - spray test. Type of series: in vivo. The following applies: application rate 4 ppm; after 6 days; sprayed cotton plants; 100% = all aphids killed. As for the experimental part: Aphis gossypii—Spray Test • Solvent: 7 parts by weight of dimethylformamide • Emulsifier: alkylaryl polyglycol ether
To produce a suitable active ingredient formulation, 1 part by weight of active ingredient is dissolved with the specified parts by weight of solvent and made up with water containing an emulsifier concentration of 1000 ppm until the desired concentration is attained. To produce further test concentrations, the formulation is diluted with emulsifier-containing water. If the addition of ammonium salts or/and penetrants is required, these are each added in a concentration of 1000 ppm to the formulation solution.
Cotton plants (Gossypium hirsutum) heavily infested by the cotton aphid (Aphis gossypii) are sprayed with an active ingredient formulation of the desired concentration.
After 6 days, the kill in % is determined. 100% means that all the aphids have been killed and 0% means that none of the aphids have been killed.

A further series has as its system Myzus persicae. In words: Myzus persicae - spray test. Type of series: in vivo. The following applies: foliar, 144 h, application rate 500 g/ha, after 6 days, sprayed Chinese cabbage leaf discs, 100% = all aphids killed, read-out: efficacy in %. On the procedure: Myzus persicae—Spray Test • Solvent: 78 parts by weight of acetone • 1.5 parts by weight of dimethylformamide • Emulsifier: alkylaryl polyglycol ether […] To produce further test concentrations, the formulation is diluted with emulsifier-containing water. Discs of Chinese cabbage leaves (Brassica pekinensis) infested by all stages of the green peach aphid (Myzus persicae) are sprayed with an active ingredient formulation of the desired concentration. After 6 days, the efficacy in % is determined. 100% means that all the aphids have been killed and 0% means that none of the aphids have been killed.

[2] abbreviates: neutral range, pH 7.8, 0.001 molar aqueous ammonium hydrogencarbonate and acetonitrile, read-out: logP[b].
Setting [3] is: acidic range, pH 2.7, 0.1% aqueous formic acid and acetonitrile, read-out: logP[a].

As for `CC(=O)Nc1cnc2nn(-c3cccnc3)cc2c1` [Example 1, 5-N-Acetylamino-2-(3-pyridyl)-pyrazolo[3,4-b]pyridine], in series [1] (setting [2]), the chromatographic logP is 0.54. The “efficacy (kill in %)” value in the series on Aphis gossypii turned out to be 95%.

Regarding `Cc1cc(F)c(-c2cnc3nn(-c4cccnc4)cc3c2)cc1SCC(F)(F)F` [Example 2, 5-[2-Fluoro-4-methyl-5-(2,2,2-trifluoroethylsulphanyl)phenyl]-2-(3-pyridyl)pyrazolo[3,4-b]pyridine], the pest or weed control at 500 g/ha with Myzus persicae worked out at 90%. Also, the chromatographic logP in series [1] (setting [3]) stood at 3.44; in series [1] (setting [2]), 3.22.

Turning to `Cc1cc(F)c(-c2cnc3nn(-c4cccnc4)cc3c2)cc1[S+]([O-])CC(F)(F)F` (centres unmarked) [Example 3, 5-[2-fluoro-4-methyl-5-(2,2,2-trifluoroethylsulphinyl)phenyl]-2-(3-pyridyl)pyrazolo [3,4-b]pyridine], the pest or weed control at 500 g/ha in the series with Myzus persicae stood at 90%. In addition, the chromatographic logP turned out to be 2.14 in series [1] (setting [3]) and 2.11 in series [1] (setting [2]).

For `Cc1ccc(-c2cnc3nn(-c4cccnc4)cc3c2)cc1SCC(F)(F)F` [Example 4, 5-[4-methyl-3-(2,2,2-trifluoroethylsulphanyl)phenyl]-2-(3-pyridyl)pyrazolo[3,4-b]pyridine], the pest or weed control at 500 g/ha in the series on Myzus persicae turned out to be 100%. The results for the chromatographic logP in series [1] (setting [3]) and in series [1] (setting [2]) were 3.14 and 3.1, respectively.

On to `Cc1ccc(-c2cnc3nn(-c4cccnc4)cc3c2)cc1[S+]([O-])CC(F)(F)F` (centres unmarked) [Example 5, 5-[4-METHYL-3-(2,2,2-TRIFLUOROETHYLSULPHINYL)PHENYL]-2-(3-PYRIDYL)PYRAZOLO [3,4-B]PYRIDINE], for which the pest or weed control at 500 g/ha in the series on Myzus persicae amounted to 100%. Besides, the chromatographic logP in series [1] (setting [3]) was found to be 2.07; in series [1] (setting [2]) it was 2.03.

In the case of `CSCCC(=O)Nc1cnc2nn(-c3cccnc3)cc2c1` [Example 6, 3-methylsulphanyl-N-[2-(3-pyridyl)pyrazolo [3,4-b]pyridin-5-yl]propanamide], the pest or weed control at 500 g/ha with Myzus persicae stood at 100%. Further, the chromatographic logP in series [1] (setting [3]) is 1.15; in series [1] (setting [2]), 1.21.

Consider `CC(F)(F)CC(=O)Nc1cnc2nn(-c3cccnc3)cc2c1` [Example 7, 3,3-DIFLUORO-N-[2-(3-PYRIDYL)PYRAZOLO[3,4-B]PYRIDIN-5-YL]BUTANAMIDE], for which the pest or weed control at 500 g/ha in the series on Myzus persicae is 90%. The chromatographic logP in series [1] (setting [3]) and in series [1] (setting [2]) was 1.22 throughout.

Regarding `Cn1cc(-c2cnc3nn(-c4cccnc4)cc3c2)cn1` [Example 8, 5-(1-methylpyrazol-4-yl)-2-(3-pyridyl)pyrazolo[3,4-b]pyridine], in the series with Myzus persicae, the pest or weed control at 500 g/ha came to 90%. Besides, the chromatographic logP in series [1] (setting [3]) was 1; in series [1] (setting [2]), 1.15.

Take `CSCCC(=O)N(C)c1cnc2nn(-c3cccnc3)cc2c1` [Example 10, N-[2-(3-pyridyl)pyrazolo[3,4-b]pyridin-5-yl]-N-methyl-3-methylsulphanylpropanamide]: in the series on Myzus persicae, the pest or weed control at 500 g/ha came out at 90%. Moreover, the chromatographic logP in series [1] (setting [3]) was 1.16; in series [1] (setting [2]), 1.2.
